Three substances from publication PMC9586930, “Molecular insights into the distinct signaling duration for the peptide-induced PTH1R activation” (Nature Communications, 2022) can be followed below.

The target in test [1] is T1, PTH1R T430A mutant (Homo sapiens, UniProt Q03431, T430A).
T1 construct: a flag-tag was fused to the N terminal of full-length PTH1R (WT or mutant); expressed in transfected cells; host or cells: HEK293T
T1 sequence (Q03431 27-593 T430A): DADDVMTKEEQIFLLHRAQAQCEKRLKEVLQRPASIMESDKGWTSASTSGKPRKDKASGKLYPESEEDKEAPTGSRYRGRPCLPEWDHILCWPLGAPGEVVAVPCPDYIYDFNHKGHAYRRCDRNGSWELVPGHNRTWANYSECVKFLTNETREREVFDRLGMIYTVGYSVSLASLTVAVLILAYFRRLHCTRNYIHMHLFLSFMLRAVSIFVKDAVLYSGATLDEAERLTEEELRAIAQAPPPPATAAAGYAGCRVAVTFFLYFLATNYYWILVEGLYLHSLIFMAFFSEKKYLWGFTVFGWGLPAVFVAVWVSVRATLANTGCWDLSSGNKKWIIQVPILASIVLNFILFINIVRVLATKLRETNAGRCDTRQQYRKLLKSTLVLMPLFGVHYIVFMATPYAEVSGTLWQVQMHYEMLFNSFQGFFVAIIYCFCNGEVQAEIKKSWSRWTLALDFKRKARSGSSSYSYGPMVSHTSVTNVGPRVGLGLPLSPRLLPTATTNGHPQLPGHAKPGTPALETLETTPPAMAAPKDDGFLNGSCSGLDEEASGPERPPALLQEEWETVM
Description: cAMP accumulation assay (GloSensor), PTH1R T430A. Format: cell-based. The conditions noted are these: for ΔpEC50±SEM: relative to WT, n = 3 in triplicate; for ΔpEC50±SEM / Span±SEM: mean ± SEM; for Span±SEM: window between maximal response (Emax) and vehicle, n = 3. As for the experimental part:
Human embryonic kidney 293 T (HEK293T, ATCC: CRL-1573) cells were transfected with a plasmid mixture consisting of pcDNA3.1-flag-PTH1R (WT or mutants) and the cAMP biosensor GloSensor-22F (Promega) at a ratio of 2:1 (see Supplementary Table 7 for a list of primers used in this study). After 24 h, transfected cells were plated onto a 384-well plate, which was treated with cell adherent reagent (Applygen) in advance. After another 12 h, cells were treated with Hank’s balanced salt solution for starvation and then incubated in CO2-independent media containing 4% GloSensor cAMP Reagent (Promega) at a volume of 5 μl per well and incubated for 20 min at RT before measurements for baseline luminescence (Spark Multimode microplate reader, TECAN). Next, test ligands were added at different concentrations from 10^−6 to 10^−13 M before second measurement. Finally, data were normalized to 100% of the maximal PTH (1-34) response for WT PTH1R using a sigmoidal dose-response in GraphPad Prism.
Statistical analyses were performed on at least three individual datasets and analysed using GraphPad Prism software. Bars represent differences in the calculated agonist potency (pEC50) and maximum agonist response (Emax) for each mutant relative to the WT receptor. Data are mean± s.e.m. from at least three independent experiments, performed in triplicates. ns, not significant, ^nsP > 0.01; ^*P < 0.01; ^**P < 0.001; ^***P < 0.0001 (one-way analysis of variance (ANOVA) followed by Dunnett’s test, compared with the response of the WT). For dose-response experiments, data were normalized and analyzed using nonlinear curve fitting for the log (agonist) versus response (three parameters) curves.
(cAMP levels reflect the balance of adenylyl cyclase and phosphodiesterase activity.)

The target in test [2] is T2, PTH1R (WT) (Homo sapiens, UniProt Q03431).
T2 construct: a flag-tag was fused to the N terminal of full-length PTH1R (WT or mutant); expressed in transfected cells; host or cells: HEK293T
T2 sequence (Q03431 27-593): T1 sequence (Q03431 27-593 T430A) with A404T
Description: Wash out assay, duration of cAMP signaling. It counts as cell-based. The conditions noted are these: ligand 10^-6 M, 10 min ligand-on phase, 70 min wash-out phase, HEK293T, GloSensor. The protocol: Human embryonic kidney 293 T (HEK293T) cells were transfected with a plasmid mixture consisting of pcDNA3.1-flag-PTH1R (WT) and the cAMP biosensor GloSensor-22F (Promega) at a ratio of 2:1. After 24 h, transfected cells were plated onto a 96-well plate, which was treated with cell adherent reagent (Applygen) in advance. After another 12 h, cells were treated with Hank’s balanced salt solution for starvation and then incubated in CO2-independent media containing 4% GloSensor cAMP Reagent (Promega) at a volume of 40 μl per well and incubated for 20 min at RT before measurements for baseline luminescence (Spark Multimode microplate reader, TECAN). Next, test ligands (10 μl) were added at 10^−6 M that approximated the respective Emax (efficacy) value obtained for that “ligand- on” phase were similar for the different ligands. Then the development of cAMP-dependent luminescence was measured for 10 min (“ligand-on” phase); the plates were then removed from the plate reader, the cells were rinsed twice to remove unbound ligand, treated with fresh media containing luciferin, and luminescence was again recorded for an additional 70 min (“wash-out” phase)[18]. Finally, data were analyzed using GraphPad Prism.

Numbering of substitutions follows the chain as printed.

Consider “H-AVAEIQLMHQRAKWIQDARRRAFLHKLIAEIHTAEI-OH [LA-PTH, long-acting PTH analog, modified PTH/PTHrP hybrid]”, for which the “span (from the WT)” value in test [1] (PTH1R T430ECL3A, replicate 1) is given as 172.2; in test [1] (PTH1R T430ECL3A, replicate 2), 195.6; in test [1] (PTH1R T430ECL3A, replicate 3), 155.2. For the same substance, the “ΔpEC50 (from the WT)” value in test [1] (PTH1R T430ECL3A, replicate 1) is recorded as -1.056; in test [1] (PTH1R T430ECL3A, replicate 2), -1.067; in test [1] (PTH1R T430ECL3A, replicate 3), -1.166; in test [1] (replicate 1), -1.056; in test [1] (replicate 2), -1.067; in test [1] (replicate 3) it was -1.166. The “ΔpEC50±SEM” value in test [1] is on record as -1.10±0.03. In addition, in test [1], the “Span±SEM” value was found to be 174.33±11.17. The “duration of cAMP signaling after wash-out” value (“duration of cAMP signaling” for short) in test [2] is listed as “stronger activity of sustained signaling when compared with the PTH”.

For “H-AVSEHQLLHDKGKSIQDLRRRELLEKLL-{Aib}-KLHTA-NH2 [ABL, Abaloparatide, an analog of PTHrP, short-acting PTH1R agonist]”, the “span (from the WT)” value was 230.5 in test [1] (PTH1R T430ECL3A, replicate 1); 190.2 in test [1] (PTH1R T430ECL3A, replicate 2); 191.7 in test [1] (PTH1R T430ECL3A, replicate 3). The “ΔpEC50 (from the WT)” value is -0.76 in test [1] (PTH1R T430ECL3A, replicate 1); -0.775 in test [1] (PTH1R T430ECL3A, replicate 2); -0.865 in test [1] (PTH1R T430ECL3A, replicate 3); -0.76 in test [1] (replicate 1); -0.775 in test [1] (replicate 2); -0.865 in test [1] (replicate 3). Further, the “ΔpEC50±SEM” value in test [1] is reported as -0.8±0.03. Further, in test [1], the “Span±SEM” value turned out to be 204.13±13.19. Besides, the “duration of cAMP signaling” value in test [2] is given as “obvious transient cAMP signaling”.

With “H-SVSEIQLMHNLGKHLNSMERVEWLRKKLQDVHNF-OH [PTH, Teriparatide, human PTH 1-34, long-acting peptide agonist of PTH1R]”, the “span (from the WT)” value in test [1] (PTH1R T430ECL3A, replicate 1) stood at 194; in test [1] (PTH1R T430ECL3A, replicate 2), 170.6; in test [1] (PTH1R T430ECL3A, replicate 3), 159.7. Moreover, the “ΔpEC50 (from the WT)” value in test [1] (PTH1R T430ECL3A, replicate 1) was determined as 0.303; in test [1] (PTH1R T430ECL3A, replicate 2) it was 0.384; in test [1] (PTH1R T430ECL3A, replicate 3) it was 0.286; in test [1] (replicate 1), 0.303; in test [1] (replicate 2), 0.384; in test [1] (replicate 3), 0.286. For the same substance, the “ΔpEC50±SEM” value in test [1] is on record as -0.32±0.03. Further, the “Span±SEM” value in test [1] is reported as 174.77±10.12. Moreover, the “duration of cAMP signaling” value in test [2] is given as “potent prolonged cAMP signaling”.
